Data reported in article PMC7318034, “Safety, Pharmacokinetics, and Drug-Drug Interaction Potential of Intravenous Durlobactam, a β-Lactamase Inhibitor, in Healthy Subjects” (Antimicrobial Agents and Chemotherapy, 2020).
Where two headings read alike, the source gives them in different places.

Experiments:
[1] = Part A single-ascending-dose plasma PK in healthy subjects; format: in vivo, human; settings: for half-life / AUC(0-inf) / Cmax / clearance / Tmax / AUC(0-t) / Vd: human, plasma; for Tmax: median; for Vd: read-out: Vss
Protocol: This was a 4-part, double-blind, placebo-controlled study (15 cohorts) of DUR administered as a 3-h i.v. infusion (except for cohort 4, in which a 2-h i.v. infusion was evaluated) (see Table S5 in the supplemental material).
The blank control matrix was made up of human plasma (BioreclamationIVT) diluted 1:1 with SigmaFast (reconstituted protease inhibitor cocktail tablet [product S8820; Sigma-Aldrich, St. Louis, MO] in 10 ml of water) for preparation of calibration standards and QC samples. […] A 100-μl aliquot of the supernatant was transferred to 96-well plates. Samples were diluted further with 400 μl of water, and 5 μl of sample was injected into the LC-MS/MS system for analysis. […] The LLOQ for all analytes was 5 ng/ml.
AUC was calculated using the log-linear trapezoidal rule.
Pharmacokinetic parameters were summarized at each assessment time point using the mean ± standard deviation (SD), the percent coefficient of variation (CV), median, minimum, and maximum. Single-ascending-dose study data were assessed for dose proportionality using Cmax and AUC, and accumulation ratios was determined using repeat-dose cohorts. […] Noncompartmental analysis of PK parameters was performed using Phoenix WinNonlin (v6.4) software to determine PK parameters.

[2] = Urine PK (urinary excretion, renal clearance) in healthy subjects; settings: human, urine, intravenous, CLr
[3] = cohort of elderly subjects, DUR 1 g
[4] = iv, 0.25 g, part A cohort 1, single 0.25 g, 3-h i.v. infusion
[5] = iv, 0.5 g, part A cohort 2, single 0.5 g, 3-h i.v. infusion
[6] = iv, 1 g, part A cohort 3, single 1.0 g, 3-h i.v. infusion
[7] = iv, 1 g, part A cohort 4, single 1.0 g, 2-h i.v. infusion
[8] = iv, 1 g, part A cohort 8 (elderly subjects >65 years), single 1.0 g, 3-h i.v. infusion
[9] = iv, 2 g, part A cohort 5, single 2.0 g, 3-h i.v. infusion
[10] = iv, 4 g, part A cohort 6, single 4.0 g, 3-h i.v. infusion
[11] = iv, 8 g, part A cohort 7, single 8.0 g, 3-h i.v. infusion

With `CC1=C[C@@H]2CN(C(=O)N2OS(=O)(=O)O)[C@@H]1C(N)=O` [DUR, Durlobactam] the “increase in Cmax with 2-h infusion compared with 3-h infusion” value ([1]; cohort 4, DUR 1 g) was “approximately 50%”, the “increase in AUC in elderly subjects compared with younger subjects” value ([1]; cohort 8, DUR 1 g) was 2 fold and the “increase in Cmax in elderly subjects compared with younger subjects” value ([1]; cohort 8, DUR 1 g) was 1.8 fold. The “increase in exposure in elderly subjects” value [1, 3] was 100%, the “reduction of renal clearance in elderly subjects” value [1, 3] was “approximately 50%” and the “reduction of volume of distribution (V) in elderly subjects” value [1, 3] was “approximately 50%”. For the same compound, the half-life ([1]; intravenous, range across single doses of 0.25 g to 8 g, read-out: mean half-life (t1/2)) was 90 to 168 min, the AUC(0-inf) [1, 4] was 25.5 ± 3.7 µg·h/mL and the Cmax [1, 4] was 6900 ± 1000 ng/mL. The clearance [1, 4] was 167 mL/min, the half-life ([1]; iv, 0.25 g, part A cohort 1, single 0.25 g, 3-h i.v. infusion, mean ± SD, n=6, read-out: t1/2 (converted)) was 90 ± 6 min and the Tmax [1, 4] was 3 h. The AUC(0-t) ([1]; iv, 0.25 g, part A cohort 1, single 0.25 g, 3-h i.v. infusion, read-out: AUC0–24) was 25.5 ± 3.7 µg·h/mL, the AUC(0-t) ([1]; iv, 0.25 g, part A cohort 1, single 0.25 g, 3-h i.v. infusion, read-out: AUC0–t) was 25.4 ± 3.7 µg·h/mL and the Vd [1, 4] was 16.6 ± 3.6 L. It also gave an AUC(0-inf) [1, 5] of 47.8 ± 7.6 µg·h/mL, a Cmax [1, 5] of 9900 ± 2000 ng/mL and a clearance [1, 5] of 178 mL/min. It also gave a half-life ([1]; iv, 0.5 g, part A cohort 2, single 0.5 g, 3-h i.v. infusion, mean ± SD, n=6, read-out: t1/2 (converted)) of 120 ± 24 min, a Tmax [1, 5] of 3 h and an AUC(0-t) ([1]; iv, 0.5 g, part A cohort 2, single 0.5 g, 3-h i.v. infusion, read-out: AUC0–24) of 47.7 ± 7.5 µg·h/mL. For the same compound, the AUC(0-t) ([1]; iv, 0.5 g, part A cohort 2, single 0.5 g, 3-h i.v. infusion, read-out: AUC0–t) was 47.4 ± 7.7 µg·h/mL, the Vd [1, 5] was 25.8 ± 2.9 L and the AUC(0-inf) [1, 6] was 76.1 ± 10.5 µg·h/mL. The Cmax [1, 6] was 20700 ± 2800 ng/mL, the clearance [1, 6] was 223 mL/min and the half-life ([1]; iv, 1 g, part A cohort 3, single 1.0 g, 3-h i.v. infusion, mean ± SD, n=6, read-out: t1/2 (converted)) was 120 ± 18 min. It also gave a Tmax [1, 6] of 3 h, an AUC(0-t) ([1]; iv, 1 g, part A cohort 3, single 1.0 g, 3-h i.v. infusion, read-out: AUC0–24) of 76.1 ± 10.5 µg·h/mL and an AUC(0-t) ([1]; iv, 1 g, part A cohort 3, single 1.0 g, 3-h i.v. infusion, read-out: AUC0–t) of 75.6 ± 10.4 µg·h/mL. The Vd [1, 6] was 25.7 ± 5 L, the AUC(0-inf) [1, 7] was 101 ± 28.9 µg·h/mL and the Cmax [1, 7] was 31300 ± 6900 ng/mL. It also gave a clearance [1, 7] of 177 mL/min, a half-life ([1]; iv, 1 g, part A cohort 4, single 1.0 g, 2-h i.v. infusion, mean ± SD, n=6, read-out: t1/2 (converted)) of 132 ± 12 min and a Tmax [1, 7] of 2 h. The AUC(0-t) ([1]; iv, 1 g, part A cohort 4, single 1.0 g, 2-h i.v. infusion, read-out: AUC0–24) was 101 ± 28.9 µg·h/mL, the AUC(0-t) ([1]; iv, 1 g, part A cohort 4, single 1.0 g, 2-h i.v. infusion, read-out: AUC0–t) was 101 ± 29 µg·h/mL and the Vd [1, 7] was 22.7 ± 6.4 L. The AUC(0-inf) [1, 8] was 151 ± 14.1 µg·h/mL, the Cmax [1, 8] was 37800 ± 2500 ng/mL and the clearance [1, 8] was 112 mL/min. It also gave a half-life ([1]; iv, 1 g, part A cohort 8 (elderly subjects >65 years), single 1.0 g, 3-h i.v. infusion, mean ± SD, n=6, read-out: t1/2 (converted)) of 144 ± 18 min, a Tmax [1, 8] of 3 h and an AUC(0-t) ([1]; iv, 1 g, part A cohort 8 (elderly subjects >65 years), single 1.0 g, 3-h i.v. infusion, read-out: AUC0–24) of 151 ± 14 µg·h/mL. It also gave an AUC(0-t) ([1]; iv, 1 g, part A cohort 8 (elderly subjects >65 years), single 1.0 g, 3-h i.v. infusion, read-out: AUC0–t) of 151 ± 14 µg·h/mL, a Vd [1, 8] of 14.5 ± 2 L and an AUC(0-inf) [1, 9] of 173 ± 25.6 µg·h/mL. For the same compound, the Cmax [1, 9] was 41500 ± 6400 ng/mL, the clearance [1, 9] was 197 mL/min and the half-life ([1]; iv, 2 g, part A cohort 5, single 2.0 g, 3-h i.v. infusion, mean ± SD, n=6, read-out: t1/2 (converted)) was 132 ± 12 min. It also gave a Tmax [1, 9] of 2.5 h, an AUC(0-t) ([1]; iv, 2 g, part A cohort 5, single 2.0 g, 3-h i.v. infusion, read-out: AUC0–24) of 173 ± 25.6 µg·h/mL and an AUC(0-t) ([1]; iv, 2 g, part A cohort 5, single 2.0 g, 3-h i.v. infusion, read-out: AUC0–t) of 173 ± 25.6 µg·h/mL. For the same compound, the Vd [1, 9] was 24.3 ± 3.2 L, the AUC(0-inf) [1, 10] was 368 ± 55.9 µg·h/mL and the Cmax [1, 10] was 96200 ± 13600 ng/mL. The clearance [1, 10] was 185 mL/min, the half-life ([1]; iv, 4 g, part A cohort 6, single 4.0 g, 3-h i.v. infusion, mean ± SD, n=6, read-out: t1/2 (converted)) was 162 ± 36 min and the Tmax [1, 10] was 3 h. For the same compound, the AUC(0-t) ([1]; iv, 4 g, part A cohort 6, single 4.0 g, 3-h i.v. infusion, read-out: AUC0–24) was 367 ± 55.1 µg·h/mL, the AUC(0-t) ([1]; iv, 4 g, part A cohort 6, single 4.0 g, 3-h i.v. infusion, read-out: AUC0–t) was 368 ± 55 µg·h/mL and the Vd [1, 10] was 22.4 ± 3.6 L. For the same compound, the AUC(0-inf) [1, 11] was 732 ± 163 µg·h/mL, the Cmax [1, 11] was 176000 ± 29000 ng/mL and the clearance [1, 11] was 190 mL/min. The half-life ([1]; iv, 8 g, part A cohort 7, single 8.0 g, 3-h i.v. infusion, mean ± SD, n=6, read-out: t1/2 (converted)) was 168 ± 24 min, the Tmax [1, 11] was 3 h and the AUC(0-t) ([1]; iv, 8 g, part A cohort 7, single 8.0 g, 3-h i.v. infusion, read-out: AUC0–24) was 730 ± 164 µg·h/mL. The AUC(0-t) ([1]; iv, 8 g, part A cohort 7, single 8.0 g, 3-h i.v. infusion, read-out: AUC0–t) was 731 ± 163 µg·h/mL, the Vd [1, 11] was 28.1 ± 9.5 L and the CL renal ([2]; 0.25 g, mean, part B cohort 9, following the final dose on Day 8, 0.250 g) was 84.1 mL/min. The CL renal ([2]; 0.25 g, median, part B cohort 9, following the final dose on Day 8, 0.250 g) was 73.5 mL/min and the CL renal ([2]; 0.5 g, mean, part B cohort 10, following the final dose on Day 8, 0.500 g) was 95.6 mL/min.
